Data on one molecule can be found in patent US12382957B2, “Lactam compound or salt thereof, complex, and fertilizer and plant growth regulator containing said compound or salt and complex” (AICHI STEEL CORPORATION, priority 2020, dated 2025).

Series [1] can be described thus: Stability of aqueous solution (1H-NMR in waters with different pH). The format is physicochemical. Particulars: aqueous solutions of pH 1 (hydrochloric acid), pH 7 (water), pH 9 (sodium hydrogen carbonate), FIG. 1. The procedure:
In order to investigate the stability of the lactam compound (L2) in water having different pH, an aqueous solution having a pH of 1 using hydrochloric acid, an aqueous solution having a pH of 7 in which the lactam compound (L2) was dissolved in water, and an aqueous solution having a pH of 9 using sodium hydrogen carbonate were subjected to ^1H-NMR measurement.

Series [2] concerns paddy rice variety "Nipponbare". Briefly: Alkaline soil cultivation test. In kind it is in vivo. Particulars: fossil shellfish soil pH9; 30 μmol administered only once; SPAD 7 days after the administration; FIG. 4. The procedure: The paddy rice variety “Nipponbare” was seeded in tap water. When roots and buds emerged, seedlings were soaked in a hydroponic solution (formulation in the Horticultural Experiment Station). When the plant height reached about 7 cm, the seedlings were transplanted into fossil shellfish soil having a pH9. Aqueous solutions containing 30 μmol of each of Fe-PDMA, only PDMA, a complex composed of the lactam compound (L2) and iron sulfate (III) (hereinafter, referred to as “Fe(III)-lactam compound (L2)”), a complex composed of the lactam compound (L2) and iron sulfate (II) (hereinafter, referred to as “Fe(II)-lactam compound (L2)”), lactam compound (L2), disodium ethylenediamine tetraacetate, Fe-EDTA, Fe-EDDHA, iron sulfate (III) or iron sulfate (II). were administered only once to each of the soil to measure SPAD values 7 days after the administration. According to FIG. 4, SPAD values were 33.8 and 30.9, respectively when either the Fe-lactam compound (L2) of divalent and trivalent iron was used.

Take `O=C(O)[C@@H]1CCCN1CC[C@@H](C(=O)O)N1CC[C@H](O)C1=O` [lactam compound (L2)]: in series [1], the “stability of the lactam ring in water” value is on record as “the lactam ring structure is maintained”. For the same molecule, the “growth effect in alkaline soil” value in series [2] is on record as “the effect can be obtained”.
